{
  "source": "patent US9409952B2",
  "about": "“Peptide-compound cyclization method” (Chugai Seiyaku Kabushiki Kaisha, priority 2011, dated 2016)",
  "note": "Positions of bridges follow the written chain, without caps; N, C: chain ends. Non-standard residues stand in square brackets, D forms with d. Residues, ends and D or L forms follow the SMILES beside them. *: point of attachment. NMeF = CN[C@@H](Cc1ccccc1)C(=O)O; AllylGly = C=CC[C@H](N)C(=O)O; NMeL = CN[C@@H](CC(C)C)C(=O)O; Ala(CN) = N#CC[C@H](N)C(=O)O; NMeV = CN[C@H](C(=O)O)C(C)C; NMeA = CN[C@@H](C)C(=O)O; Piperidide = C1CCN(*)CC1; Sar = CNCC(=O)O",
  "data": [
    {"experiment": "Metabolic stability in human hepatic microsome", "assay_type": "in vitro ADME", "details": "microsomes, pH 7.4; human hepatic microsome, NADPH(+); read-out: CL NADPH(+)", "units": {"microsomal CLint at 1 uM": "µL/min/mg"}, "values": [
      {"smiles": "CC(C)C[C@H]1C(=O)N(C)[C@@H](CC(C)C)C(=O)N[C@@H](C)C(=O)N[C@H](C(=O)N(C)[C@@H](Cc2ccccc2)C(=O)N[C@@H](C)C(=O)N2CCCCC2)CC(=O)N[C@@H](C)C(=O)N[C@@H](Cc2ccccc2)C(=O)N(C)[C@@H](CC(C)C)C(=O)N[C@@H](CC#N)C(=O)N(C)[C@@H](Cc2ccccc2)C(=O)N[C@@H](C)C(=O)N1C", "note": "[DP-613] (AF[NMeL][Ala(CN)][NMeF]A[NMeL][NMeL]AD[NMeF]A-Piperidide; lactam N-10)", "microsomal CLint at 1 uM": 37},
      {"smiles": "CC(C)C[C@@H]1NC(=O)C[C@@H](C(=O)N2CCCCC2)NC(=O)[C@H]([C@@H](C)O)NC(=O)[C@H](C(C)C)N(C)C(=O)CN(C)C(=O)[C@H](CC(C)C)N(C)C(=O)[C@H](Cc2ccccc2)NC(=O)[C@H](Cc2ccccc2)N(C)C(=O)[C@@H](C(C)C)NC(=O)[C@H](CC(C)C)N(C)C(=O)[C@H](C)N(C)C1=O", "note": "[DP-615] (L[NMeA][NMeL][dV][NMeF]F[NMeL][Sar][NMeV]TD-Piperidide; lactam N-11)", "microsomal CLint at 1 uM": 42},
      {"smiles": "CC(C)C[C@@H]1NC(=O)[C@H](CC(C)C)N(C)C(=O)[C@H](C)N(C)C(=O)[C@H](Cc2ccccc2)NC(=O)C[C@@H](C(=O)N2CCCCC2)NC(=O)[C@H]([C@@H](C)O)NC(=O)[C@H](C(C)C)N(C)C(=O)CN(C)C(=O)[C@H](CC(C)C)N(C)C(=O)[C@@H](C(C)C)NC(=O)[C@H](Cc2ccccc2)N(C)C1=O", "note": "[DP-616] (F[NMeA][NMeL]L[NMeF][dV][NMeL][Sar][NMeV]TD-Piperidide; lactam N-11)", "microsomal CLint at 1 uM": 69},
      {"smiles": "CC(C)C[C@@H]1NC(=O)[C@H](CC(C)C)N(C)C(=O)[C@H](C)N(C)C(=O)[C@@H](C(C)C)NC(=O)C[C@@H](C(=O)N2CCCCC2)NC(=O)[C@H]([C@@H](C)O)NC(=O)[C@H](C)N(C)C(=O)CN(C)C(=O)[C@H](CC(C)C)N(C)C(=O)[C@H](Cc2c[nH]c3ccccc23)NC(=O)[C@H](Cc2ccccc2)N(C)C1=O", "note": "[DP-622] ([dV][NMeA][NMeL]L[NMeF]W[NMeL][Sar][NMeA]TD-Piperidide; lactam N-11)", "microsomal CLint at 1 uM": 36},
      {"smiles": "CC(C)C[C@H]1C(=O)N(C)CC(=O)N(C)[C@@H](C)C(=O)N[C@@H]([C@@H](C)O)C(=O)N[C@H](C(=O)N2CCCCC2)CC(=O)N[C@H](C(C)C)C(=O)N(C)[C@@H](C)C(=O)N(C)[C@@H](CC(C)C)C(=O)N[C@@H](Cc2c[nH]c3ccccc23)C(=O)N(C)[C@@H](Cc2ccccc2)C(=O)N[C@@H](Cc2ccccc2)C(=O)N1C", "note": "[DP-623] ([dV][NMeA][NMeL]W[NMeF]F[NMeL][Sar][NMeA]TD-Piperidide; lactam N-11)", "microsomal CLint at 1 uM": 16},
      {"smiles": "C=CC[C@@H]1NC(=O)[C@H](CC(C)C)N(C)C(=O)[C@H](C)N(C)C(=O)[C@@H](C(C)C)NC(=O)C[C@@H](C(=O)N2CCCCC2)NC(=O)[C@H]([C@@H](C)O)NC(=O)[C@H](CC(C)C)N(C)C(=O)[C@H](C)N(C)C(=O)[C@H](CC(C)C)N(C)C(=O)[C@H](Cc2ccccc2)NC(=O)[C@H](Cc2ccccc2)N(C)C1=O", "note": "[DP-628] ([dV][NMeA][NMeL][AllylGly][NMeF]F[NMeL][NMeA][NMeL]TD-Piperidide; lactam N-11)", "microsomal CLint at 1 uM": 36},
      {"smiles": "CC(C)C[C@H]1C(=O)N(C)CC(=O)N(C)[C@@H](C)C(=O)N[C@@H]([C@@H](C)O)C(=O)N[C@H](C(=O)N2CCCCC2)CC(=O)N[C@H](C(C)C)C(=O)N(C)[C@@H](C)C(=O)N(C)[C@@H](CC(C)C)C(=O)N[C@@H](CC#N)C(=O)N(C)[C@@H](Cc2ccccc2)C(=O)N[C@@H](Cc2ccccc2)C(=O)N1C", "note": "[DP-629] ([dV][NMeA][NMeL][Ala(CN)][NMeF]F[NMeL][Sar][NMeA]TD-Piperidide; lactam N-11)", "microsomal CLint at 1 uM": 16},
      {"smiles": "CC(C)C[C@@H]1NC(=O)[C@H](CC(C)C)N(C)C(=O)[C@H](C)N(C)C(=O)[C@@H](C(C)C)NC(=O)C[C@@H](C(=O)N2CCCCC2)NC(=O)[C@H]([C@@H](C)O)NC(=O)[C@H](Cc2ccccc2)N(C)C(=O)[C@H](C)N(C)C(=O)[C@H](CC(C)C)N(C)C(=O)[C@H](CC#N)NC(=O)[C@H](Cc2ccccc2)N(C)C1=O", "note": "[DP-630] ([dV][NMeA][NMeL]L[NMeF][Ala(CN)][NMeL][NMeA][NMeF]TD-Piperidide; lactam N-11)", "microsomal CLint at 1 uM": 34}
    ]}
  ]
}
